Measured values: patent US20060275856A1, “Method for analyzing cell free notch cleavage and method for drug screening” (OSAKA INDUSTRIAL PROMOTION ORGANIZATION, priority 2003, published 2006)

Assays:
presenilin/γ-secretase [1] = target: T1, presenilin/γ-secretase (Homo sapiens, UniProt P49768); test: Multiple substrate cell-free assay system combining βAPP and Notch-1 (IP/MALDI-TOF MS of Aβ, AICD, F-Nβ, NICDΔC); assay type: biochemical; conditions: cells pretreated at 1 μM and further 1 μM added in all buffers including homogenate and reaction buffer
T1 construct: A crude purified membrane fraction of K293 cells co-expressing F-NEXTΔC and swβAPP; endogenous in cells; host or cells: K293 (human embryonic kidney 293) cells co-expressing F-NEXTΔC and swβAPP; crude membrane fraction (CMF)

presenilin/γ-secretase [2] = target: T1, presenilin/γ-secretase; test: as above; assay type: biochemical
Method: In the case of cell-free γ-secretase assay, MS washing buffer composed of 4 time amount or more of 0.1% n-octylglucoside, 140 mM NaCl, 10 mM Tris (pH 8.0) and 0.025% sodium azide was added to an S1 or S2 fraction which was the supernatant of ultracentrifugation after the assay. The mixture was immunoprecipitated at 4° C. for 4 hours using 6636, 6618, 4G8 or M2 agarose. After the immunoprecipitation, the precipitate was washed three times at 4° C. for 10 minutes using the MS washing buffer. The precipitate was washed once more with 10 mM Tris (pH 8.0) containing 0.025% sodium azide, and then simply washed once more with water. A peptide bound to the specific antibody in the precipitate consequently obtained was eluted with TFA/acetonitrile/water (TFA: acetonitrile: water=1:20:20) saturated with α-cyano-4-hydroxy cinnamic acid. The solubilized sample was dried on a stainless plate, and analyzed by MALDI-TOF MS. MS peaks were calibrated by angiotensin (Sigma) and insulin β chain (Sigma).
Human embryonic kidney 293 cells (K293 cells) in which F-NEXTΔC and Sweden type mutant βAPP (swβAPP) had been constitutively co-expressed were made by transfecting with the Sweden type mutant βAPP using Lipofectamine 2000 (Invitrogen), selecting by G418 and subsequently, transfecting the cells expressing βAPP with F-NEXTΔC. It was confirmed first that F-NEXTΔC and swβAPP had been expressed in the lysate of this cell, and simultaneously that F-Nβ and Aβ had been released in the culture supernatant (FIG. 5A to 5C). The composition of F-Nβ and Aβ molecular species were examined and it was confirmed that they were not inconsistent with previous reports (results are not shown).
A crude purified membrane fraction of K293 cells co-expressing F-NEXTΔC and swβAPP, pretreated with 100 nM of L685,458 or 100 nM of DAPT for 2 hours before extracting the membrane fraction was used. The S1-40 min fraction was collected from this crude purified membrane fraction. The precipitate fraction after collecting the S1-40 min fraction was resuspended in the reaction buffer, and then sonicated for a short time. Subsequently the fraction was centrifuged at 100,000×g for 15 minutes to collect the supernatant fraction as the S2-40 min fraction.
The fractions were immunoprecipitated with the antibody specific for each fragment (4G8 for Aβ, 6618 for AICD, M2 agarose for F-Nβ and […] for NICDΔC), and analyzed using the MALDI-TOF mass analyzer (FIG. 8). NICDΔC and AICD de novo produced were identified in the S1-40 min fraction. F-Nβ and Aβ were identified in the S2-40 min fraction (FIG. 8). Even when the change was added to the multiple substrate cell-free assay system combining βAPP and Notch-1, the diversity in the proteolytic sites by the presenilin/γsecretase was conserved.
The cells co-expressing F-NEXTΔC and swβAPP were cultured up to the confluent phase, and treated with the γ-secretase inhibitor at each concentration for 3 hours. As the γ-secretase inhibitor, L685,458 which was a transition-state analogue which binds to an active center of the presenilin/γ-secretase and DAPT which was not the transition-state analogue were used. The cells after the treatment were washed twice with ice-cooled PBS to collect. These cells were lysed and homogenated to extract CMF. Subsequently, this membrane fraction was suspended in alkaline washing buffer and left stand at 4° C. for 30 minutes. Then, the resuspension and the centrifugation were repeated three times using the reaction buffer to wash out the alkaline washing buffer. It appears that most γ-secretase inhibitor contained in CMF was washed out until this process. Finally, CMF was suspended once more in the reaction buffer, and the cell-free reaction was performed. The amounts of AICD and NICDΔC in the S1-40 min fraction and the amounts of Aβ and Nβ in the S2-40 min fraction were semi-quantified from relative heights of MALDI-TOF MS peaks, and evaluated by four scales of −, +, ++ and +++.

presenilin/γ-secretase [3] = target: T1, presenilin/γ-secretase; test: Pulse-chase experiment: secretion of F-Nβ from K293 cells expressing F-NEXTΔC or F-NEXT; assay type: cell-based; conditions: 1 μM, pretreating for 2 hours (FIG. 4D)
Method: In order to determine whether an N terminal fragment (NTF: F-Nβ) was released from the cells which had expressed F-NEXTΔC or F-NEXT as a result of proteolysis by presenilin/γ-secretase, the cells (K293 cells) which had stably expressed F-NEXTΔC or F-NEXT were cultured in a 10 cm dish up to a confluent phase. The cells were cultured in DMEM solution deprived of methionine (obtained by modifying a commercially available one from Gibco) for 45 minutes to be starved with methionine. Subsequently, the medium was replaced with the same DMEM solution deprived of methionine, and simultaneously the cells were metabolically pulse-labeled with 300 μCi of [^35S]-methionine/cysteine (Pro-mix, Amersham) for 30 minutes. Then the cells were chased in 10% FCS/DMEM for 2 hours.
After termination of a chase period, the medium was collected and immediately placed on ice. Then cell debris was eliminated by centrifuging at 3,000×g. Subsequently, a protease inhibitor cocktail (1:1000, Sigma) and 0.025% sodium azide were added. The sample was immunoprecipitated with 4G8 antibody or anti-FLAG-M2-agarose (Sigma) overnight, and a precipitate was washed three times with RIPA buffer containing 0.1% SDS, 0.5% deoxycholic acid and 1% Triton X-100. Subsequently, SDS-PAGE was performed using 10 to 20% gradient gel of Tris-tricine (Invitrogen). […]

[4] = pretreated at 1 μM, thoroughly washed out

Chain of FLAG-NEXT (chain, as listed by the source): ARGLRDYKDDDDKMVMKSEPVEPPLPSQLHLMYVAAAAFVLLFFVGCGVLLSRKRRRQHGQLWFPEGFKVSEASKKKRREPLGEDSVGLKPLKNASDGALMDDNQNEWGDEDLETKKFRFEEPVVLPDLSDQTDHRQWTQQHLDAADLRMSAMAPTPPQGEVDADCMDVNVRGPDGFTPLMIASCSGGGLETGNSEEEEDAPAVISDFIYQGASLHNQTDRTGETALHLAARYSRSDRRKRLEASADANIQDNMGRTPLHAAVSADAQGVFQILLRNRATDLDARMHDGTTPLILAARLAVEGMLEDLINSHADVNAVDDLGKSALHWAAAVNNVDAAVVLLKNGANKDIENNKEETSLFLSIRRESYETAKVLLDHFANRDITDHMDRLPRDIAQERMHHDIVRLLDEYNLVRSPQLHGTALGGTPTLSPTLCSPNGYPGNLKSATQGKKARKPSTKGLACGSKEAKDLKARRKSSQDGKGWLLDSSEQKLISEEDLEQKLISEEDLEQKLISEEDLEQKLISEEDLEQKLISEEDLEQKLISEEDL

For `CC(C)C[C@H](NC(=O)[C@H](Cc1ccccc1)C[C@@H](O)[C@H](Cc1ccccc1)NC(=O)OC(C)(C)C)C(=O)N[C@@H](Cc1ccccc1)C(N)=O` [L685,458], the “production of F-Nβ, Aβ, NICDΔC and AICD (all of four fragments)” value (presenilin/γ-secretase [1]) was “not observed at all”, the “action on γ49 and corresponding S3 cleavage” value (presenilin/γ-secretase [2]) was “less sensitively” and the “action upon γ40 and corresponding S4 cleavage” value (presenilin/γ-secretase [2]) was “acted sensitively”. For the same compound, the “Aβ/Nβ, γ cleaved NTF (S4/γ40 cleavage)” value (presenilin/γ-secretase [2]; [4]) was “not observed”, the “de novo production of AUCD/NICD which was γ cleaved CTF (S3/γ49 cleavage)” value (presenilin/γ-secretase [2]; [4]) was “recognized” and the “peak heights of four fragments” value (presenilin/γ-secretase [2]; pretreated with 10 nM) was “maximum on average”. The “de novo production of F-Nβ/Aβ” value (presenilin/γ-secretase [2]; pretreatment concentration decreased to 100 nM and 10 nM) was “recovered” and the “secretion of F-Nβ” value (presenilin/γ-secretase [3]) was “almost completely inhibited”.
For “wild type PS1 (presenilin), stably expressed in K293 cells”, the “degradation of the F-NEXT derivative during 2 hours' chase” value (F-NEXT V1744L) was “F-NEXT V1744G and F-NEXT V1744L in the background of wild presenilin were degraded and their amounts were decreased during 2 hours' chase as with F-NEXT” and the “degradation of the F-NEXT derivative during 2 hours' chase” value (F-NEXT V1744G) was “F-NEXT V1744G and F-NEXT V1744L in the background of wild presenilin were degraded and their amounts were decreased during 2 hours' chase as with F-NEXT”.
In the case of `C[C@H](NC(=O)Cc1cc(F)cc(F)c1)C(=O)N[C@H](C(=O)OC(C)(C)C)c1ccccc1` [DAPT], the “action on γ49 and corresponding S3 cleavage” value (presenilin/γ-secretase [2]) is reported as “less sensitively”, the “action upon γ40 and corresponding S4 cleavage” value (presenilin/γ-secretase [2]) is reported as “acted sensitively” and the “effects on the four fragments compared with L685,458” value (presenilin/γ-secretase [2]; same pretreatment experiment (FIGS. 9A and 9B)) is reported as “extremely similar”.
For “PS1 D385N, dominant negative mutant of presenilin, stably expressed in K293 cells”, the “NICD production and decrease of the F-NEXT derivative after 2 hours' chase” value (F-NEXT V1744L) was “not only the NICD production but also the decrease of F-NEXT and its derivatives were not observed after 2 hours' chase”, the “NICD production and decrease of F-NEXT after 2 hours' chase” value (FLAG-NEXT) was “not only the NICD production but also the decrease of F-NEXT and its derivatives were not observed after 2 hours' chase” and the “NICD production and decrease of the F-NEXT derivative after 2 hours' chase” value (F-NEXT V1744G) was “not only the NICD production but also the decrease of F-NEXT and its derivatives were not observed after 2 hours' chase”.
